These results are taken from ChEMBL document CHEMBL1201862, “PubChem BioAssay data set” (2004).

Structures are written as SMILES.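 Compound exposure: 48 hours, 5 concentrations, 96-well plates. GI50 is the concentration that inhibits growth by half.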 The source made the active and inactive calls. No stated cut-off is given here; in the data, active = GI50 up to about 1.1 µM and inactive = higher.

Some test systems named below: ACHN; CAKI-1; COLO 205; HCT-15; HOP-62; IGROV-1; LOX IMVI; NCI-H460; OVCAR-5; OVCAR-8; PC-3; SW-620; T47D; U-251; UACC-257; KM12; SF-268; SNB-75; TK-10.
What all share (test): growth of human tumour cells (NCI), 48 h

Turning to `CC(=O)/C(=C\n1c(=S)[nH]c2ccc([N+](=O)[O-])cc21)C(=O)Nc1ccccc1C`, the GI50 was > 100 µM (inactive) with ACHN; > 100 µM (inactive) with CAKI-1; > 100 µM (inactive) in the assay with COLO 205; over 100 µM in the assay on HCT-15; > 100 µM (inactive) in the assay with HOP-62; > 100 µM (inactive) in the assay with IGROV-1. Also, the GI50 in the assay on LOX IMVI, in the assay with NCI-H460, in the assay on OVCAR-5, in the assay on OVCAR-8, in the assay with PC-3 and in the assay on SW-620 was > 100 µM (inactive) each time. The GI50 with T47D, with U-251 and in the assay on UACC-257 was > 100 µM (inactive) in each case.

For `COC(=O)[C@H](Cc1ccccc1)NC(=O)N(CCC#N)CCN(C(=O)N[C@@H](Cc1ccccc1)C(=O)OC)c1ccccc1`, the GI50 is 18.9 µM (inactive) in the assay with ACHN; 20 µM (inactive) in the assay on CAKI-1; 25 µM (inactive) in the assay with COLO 205; 38.5 µM with HCT-15; 41.1 µM (inactive) with HOP-62; 20.8 µM (inactive) in the assay with IGROV-1. Further, the GI50 in the assay with KM12 was 37.3 µM (inactive); in the assay on LOX IMVI, 22.5 µM (inactive); in the assay on OVCAR-5 it was > 100 µM (inactive); with OVCAR-8 it was 37.8 µM (inactive); in the assay with PC-3, 32.1 µM (inactive); with SF-268, 22.8 µM (inactive). Further, the GI50 was 17.5 µM (inactive) in the assay with SNB-75; 35.1 µM (inactive) in the assay on SW-620; 20.2 µM (inactive) in the assay with T47D; 20 µM (inactive) with TK-10; > 10 µM (inactive) in the assay with U-251; 20 µM (inactive) in the assay on UACC-257.

In the case of `CSC(SC)=C(C#N)C(=O)Nc1ccc(C)cc1`, the GI50 is > 100 µM (inactive) in the assay with ACHN; 42.8 µM (inactive) in the assay with CAKI-1; > 100 µM (inactive) in the assay with COLO 205; over 100 µM with HCT-15; > 100 µM (inactive) with HOP-62; 61.4 µM (inactive) with IGROV-1. Besides, the GI50 in the assay with KM12, with LOX IMVI, in the assay on NCI-H460, in the assay on OVCAR-5, with PC-3 and in the assay with SF-268 was > 100 µM (inactive) in each case. The GI50 in the assay on SW-620, in the assay on T47D, in the assay on TK-10, with U-251 and in the assay on UACC-257 was > 100 µM (inactive) throughout.

As for `CCOC(=O)C1=C(C)N(c2ccc(Cl)cc2)C2(O)C=CC(O)=C3C(=O)c4ccccc4C(=O)C312` (configuration not stated), the GI50 is 5 µM (inactive) in the assay on ACHN; 1.96 µM (inactive) with CAKI-1; 3.72 µM (inactive) in the assay with COLO 205; 2.12 µM in the assay on HCT-15; 5.2 µM (inactive) with HOP-62; 3.94 µM (inactive) in the assay with IGROV-1. For the same compound, the GI50 with KM12 is 6.97 µM (inactive); in the assay on LOX IMVI, 3.72 µM (inactive); in the assay with NCI-H460 it was 5.38 µM (inactive); in the assay on OVCAR-5 it was 12.9 µM (inactive); with OVCAR-8, 5.11 µM (inactive); in the assay on PC-3, 3.34 µM (inactive). In addition, the GI50 with SF-268 is 1.67 µM (inactive); in the assay with SW-620, 4.08 µM (inactive); with T47D it was 3.45 µM (inactive); in the assay on TK-10, 1.71 µM (inactive); in the assay on U-251, 3.59 µM (inactive); with UACC-257 it was 18.2 µM (inactive).

For `COC1=C(OC)C(=O)C(C/C=C/c2c(Cl)nc3sccn23)=C(C)C1=O`, the GI50 is 15.5 µM (inactive) in the assay with ACHN; 12.2 µM (inactive) in the assay on CAKI-1; 16.9 µM (inactive) in the assay on COLO 205; 26.5 µM with HCT-15; 16.8 µM (inactive) in the assay on HOP-62; 17.4 µM (inactive) in the assay on IGROV-1. Further, the GI50 in the assay with KM12 was 17.5 µM (inactive); with LOX IMVI, 2.24 µM (inactive); in the assay with NCI-H460 it was 17.9 µM (inactive); in the assay with OVCAR-5, 16.9 µM (inactive); in the assay on OVCAR-8 it was 10.4 µM (inactive); with PC-3, 11.8 µM (inactive). For the same compound, the GI50 in the assay on SF-268 is 16 µM (inactive); in the assay with SW-620, 21.3 µM (inactive); in the assay on T47D, 7.74 µM (inactive); in the assay on TK-10 it was 15 µM (inactive); with U-251, 5.87 µM (inactive); with UACC-257, 0.536 µM (active).

Consider `C=C(C)CNCCN`, for which the GI50 with ACHN was > 100 µM (inactive); in the assay with CAKI-1, > 100 µM (inactive); with HCT-15 it was over 100 µM; in the assay on HOP-62 it was > 100 µM (inactive); in the assay on IGROV-1, > 100 µM (inactive); with KM12 it was > 100 µM (inactive). For the same compound, the GI50 with LOX IMVI, in the assay on NCI-H460, in the assay with OVCAR-5, in the assay with OVCAR-8, with PC-3 and in the assay with SF-268 was > 100 µM (inactive) in each case. Moreover, the GI50 in the assay with SW-620, in the assay on T47D, in the assay on TK-10, in the assay on U-251 and with UACC-257 was > 100 µM (inactive) each time.

Consider `Nc1nc2c(ncn2CC2CCC(CO)C2)c(=O)[nH]1` (configuration not stated), for which the GI50 was > 100 µM (inactive) in the assay on ACHN; > 100 µM (inactive) with CAKI-1; > 100 µM (inactive) with COLO 205; over 100 µM with HCT-15; > 100 µM (inactive) in the assay on HOP-62; > 100 µM (inactive) in the assay with KM12. In addition, the GI50 with LOX IMVI, in the assay with OVCAR-5, with PC-3, in the assay with SF-268, with SNB-75 and in the assay on SW-620 was > 100 µM (inactive) each time. Also, the GI50 in the assay with T47D, in the assay on TK-10, with U-251 and in the assay on UACC-257 was > 100 µM (inactive) throughout.

`Cc1ccc(-n2nnc(C#N)c2O)cc1`: the GI50 in the assay with ACHN was > 100 µM (inactive); in the assay on CAKI-1 it was 93.3 µM (inactive); with COLO 205 it was > 100 µM (inactive); with HCT-15, over 100 µM; in the assay with HOP-62, > 100 µM (inactive); in the assay with IGROV-1, > 100 µM (inactive). Further, the GI50 with KM12, with NCI-H460, in the assay with OVCAR-5, in the assay with OVCAR-8, in the assay with PC-3 and in the assay with SF-268 was > 100 µM (inactive) in each case. Further, the GI50 in the assay on SNB-75, with SW-620, with T47D, in the assay on TK-10, with U-251 and in the assay with UACC-257 was > 100 µM (inactive) in each case.

`CC(C)(C)/C(O)=C\c1nc2cc(C(F)(F)F)ccc2[nH]c1=O`: the GI50 in the assay on ACHN is > 100 µM (inactive); in the assay on CAKI-1, > 100 µM (inactive); with COLO 205, > 100 µM (inactive); in the assay with HCT-15, over 100 µM; in the assay on HOP-62, > 100 µM (inactive); in the assay with IGROV-1, > 100 µM (inactive). The GI50 in the assay on KM12, in the assay with LOX IMVI, with OVCAR-5, in the assay with OVCAR-8, in the assay with PC-3 and with SF-268 was > 100 µM (inactive) throughout. Also, the GI50 with SNB-75, in the assay with SW-620, with T47D, in the assay on TK-10, in the assay on U-251 and in the assay with UACC-257 was > 100 µM (inactive) each time.

In the case of `COc1cc(NS(C)(=O)=O)ccc1N1Cc2c[nH]c3ccc4nccc1c4c23`, the GI50 with ACHN was > 100 µM (inactive); in the assay on CAKI-1, > 100 µM (inactive); in the assay with COLO 205, 26.7 µM (inactive); in the assay on HCT-15, over 100 µM; with HOP-62, 54.2 µM (inactive); in the assay on IGROV-1, 36.3 µM (inactive). Also, the GI50 was 34.4 µM (inactive) with KM12; 18.2 µM (inactive) with LOX IMVI; 18.5 µM (inactive) in the assay on NCI-H460; 30 µM (inactive) in the assay on OVCAR-5; 35.1 µM (inactive) in the assay on OVCAR-8; 29.6 µM (inactive) in the assay on PC-3. Also, the GI50 in the assay on SF-268 was 19.1 µM (inactive); with SW-620, 32.1 µM (inactive); in the assay with T47D, 25.5 µM (inactive); with TK-10, 39.8 µM (inactive); with U-251, 36.5 µM (inactive); with UACC-257 it was 37.2 µM (inactive).

As to `CCc1nn(S(=O)(=O)c2ccc(C)cc2)c2c1CS(=O)(=O)CC2`, the GI50 in the assay on ACHN was > 100 µM (inactive); in the assay with CAKI-1 it was > 100 µM (inactive); in the assay on COLO 205, > 100 µM (inactive); with HCT-15, over 100 µM; with HOP-62, 84.1 µM (inactive); with KM12, > 100 µM (inactive). For the same compound, the GI50 in the assay on NCI-H460 is > 100 µM (inactive); with OVCAR-5 it was > 100 µM (inactive); in the assay with OVCAR-8 it was 34.9 µM (inactive); in the assay on PC-3, > 100 µM (inactive); in the assay on SF-268, 37.1 µM (inactive); in the assay with SNB-75, > 100 µM (inactive). In addition, the GI50 with SW-620, in the assay on T47D, in the assay with TK-10, in the assay on U-251 and in the assay with UACC-257 was > 100 µM (inactive) throughout.

As for `Cc1ccc(S(=O)(=O)NC(=O)NC(CCCCN)C(=O)O)cc1` (configuration not stated), the GI50 in the assay with ACHN was > 100 µM (inactive); in the assay on COLO 205, > 100 µM (inactive); in the assay on HCT-15, over 100 µM; in the assay on HOP-62 it was > 100 µM (inactive); in the assay on IGROV-1, > 100 µM (inactive); in the assay with KM12 it was > 100 µM (inactive). Moreover, the GI50 in the assay with LOX IMVI, with NCI-H460, with OVCAR-8, in the assay on PC-3, with SF-268 and in the assay on SNB-75 was > 100 µM (inactive) in each case. In addition, the GI50 in the assay on SW-620, in the assay with T47D, in the assay on TK-10, with U-251 and with UACC-257 was > 100 µM (inactive) in each case.
